Experimental data as given in patent US6521764B1, “Process for the preparation of fumagillin” (Sanofi-Synthelabo, priority 1999, dated 2003).

How the values were obtained:
[1] = at -80 °C; cited from earlier work
[2] = 2-week stability study of Fumagillin samples obtained by various methods, Fumagillin content by HPLC before and after stressing; format: physicochemical; details: for HPLC Assay, After 2 weeks at 40° C., ambient humidity / HPLC Assay, Initial: 3 equivalent acetic acid; for HPLC Assay, Initial: before stressing
Protocol: We carried out a 2-week stability study at 40 OC , ambient humidity, of selected samples obtained by various methods. The Fumagillin content of the samples was measured by HPLC before and after the stressing.

[3] = sample liberated from methanol, crude product
[4] = sample liberated from methanol-dichloromethane 5:1, crude product
[5] = sample liberated from toluene, crude product
[6] = sample liberated in aqueous medium, followed by extraction with dichloromethane, concentration and crystallization in methanol

In the case of `CO[C@@H]1[C@H](OC(=O)/C=C/C=C/C=C/C=C/C(=O)O)CC[C@]2(CO2)[C@H]1[C@@]1(C)O[C@@H]1CC=C(C)C` [Fumagillin], the Stability on storage [1] is listed as “stable”, the “HPLC Assay, After 2 weeks at 40° C., ambient humidity” value (from here on “HPLC Assay, After 2 weeks”) [2, 3] is listed as 85.1% and the “HPLC Assay, Initial” value [2, 3] is listed as 97.6%. For the same compound, the “HPLC Assay, After 2 weeks” value [2, 4] was 49.9%, the “HPLC Assay, Initial” value [2, 4] was 96.3% and the “HPLC Assay, After 2 weeks” value [2, 5] was 61.0%. For the same compound, the “HPLC Assay, Initial” value [2, 5] was 92.6%, the “HPLC Assay, After 2 weeks” value [2, 6] was 54.9% and the “HPLC Assay, Initial” value [2, 6] was 96.9%. The “Stability compared with samples obtained by other methods” value ([2]; samples obtained by the alcoholic method, 2 weeks at 40 °C, ambient humidity) was “considerably more stable”.
